Patent publication US20240261279A1, “METHOD FOR TREATING LUNG CANCER” (priority 2021, published 2024)

Tested on: nuclear protein kinase C-δ
Assay: confocal-based high-content screening measuring the quantity of nuclear protein kinase C-δ in GR10 cells
Type: cell-based
Conditions: 24 hours treatment, fluorescence intensity (FIG. 3)
Text: Please refer to FIG. 1. […] To investigate the growth-inhibiting effect of the nuclear protein kinase C-δ inhibitor of the present disclosure on the non-small-cell lung cancer cells resistant to the epidermal growth factor receptor-tyrosine kinase inhibitor, the present experimental example utilizes the screening system shown in FIG. 1 to measure whether the nuclear protein kinase C-δ inhibitor of the present disclosure can inhibit the production of nuclear protein kinase C-δ in the cancer cells.
In the present experimental example, gefitinib-resistant non-small-cell lung cancer cells (gefitinib-resistant 10 cells, hereinafter “GR10 cells”) are used as the cell model. In Example 1 to Example 4, GR10 cells are respectively treated with nintedanib esylate (hereinafter “Nin”), ponatinib (hereinafter “Pon”), regorafenib (hereinafter “Reg”) or cobimetinib (hereinafter “Cob”) for 24 hours, and the quantity of nuclear protein kinase C-δ within the GR10 cells is determined by confocal-based high-content image analysis. On the other hand, the present experimental example further includes Comparative Example 1 and Comparative Example 2. […]
Please refer to FIG. 2A to FIG. 2F and FIG. 3. […] FIG. 3 is a comparative diagram of fluorescence intensity of the GR10 cells after treatment of Example 1 to Example 4, Comparative Example 1 and Comparative Example 2. […]

## Cc1ccc(C(=O)Nc2ccc(CN3CCN(C)CC3)c(C(F)(F)F)c2)cc1C#Cc1cnc2cccnn12 [Pon, ponatinib]
  concentration at which a great ability to inhibit nuclear protein kinase C-δ is performed: greater than 0.1 μM
